The target of assay [1] is T1, human adenosine A2A receptor (Homo sapiens, UniProt P29274).
T1 construct: expressed in transfected cells; host or cells: CHO cells, Semliki Forest virus expression system; membrane preparation
In words: Human adenosine A2A receptor [3H]-SCH-58261 binding assay. The note with it: for selectivity (A1/A2a): ratio KiHA1 divided by KiHA2A; for Ki: recombinant human A2A in CHO cell membranes, [3H]-SCH-58261, Cheng-Prussoff, read-out: Ki hA2A.

The target of assay [2] is T2, HA1 adenosine receptor (Homo sapiens, UniProt P30542).
T2 sequence (P30542 1-326): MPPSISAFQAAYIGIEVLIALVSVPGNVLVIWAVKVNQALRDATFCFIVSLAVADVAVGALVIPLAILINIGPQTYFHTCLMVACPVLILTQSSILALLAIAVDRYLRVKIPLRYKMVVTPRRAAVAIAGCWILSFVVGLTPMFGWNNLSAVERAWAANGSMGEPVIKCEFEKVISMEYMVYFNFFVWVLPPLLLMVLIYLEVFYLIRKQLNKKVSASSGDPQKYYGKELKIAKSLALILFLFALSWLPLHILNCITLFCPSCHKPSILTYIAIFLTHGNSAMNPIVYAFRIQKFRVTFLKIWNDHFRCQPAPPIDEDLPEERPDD
In words: Human adenosine A1 receptor affinity (Ki hA1). The format is binding.

T1 sequence (P29274 whole entry): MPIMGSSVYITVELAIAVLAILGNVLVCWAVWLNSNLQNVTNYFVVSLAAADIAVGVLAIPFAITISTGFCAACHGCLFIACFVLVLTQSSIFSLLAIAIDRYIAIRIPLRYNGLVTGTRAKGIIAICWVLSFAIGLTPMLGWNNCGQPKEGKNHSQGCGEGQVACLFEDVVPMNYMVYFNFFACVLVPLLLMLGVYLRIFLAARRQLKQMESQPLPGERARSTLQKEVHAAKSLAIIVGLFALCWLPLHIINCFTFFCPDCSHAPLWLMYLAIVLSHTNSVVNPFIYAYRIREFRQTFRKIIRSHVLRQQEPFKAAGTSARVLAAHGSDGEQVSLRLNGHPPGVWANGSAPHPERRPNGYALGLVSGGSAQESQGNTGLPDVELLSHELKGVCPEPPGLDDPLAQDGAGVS

Consider `NC(=O)C1CCCN(C(=O)c2cc(N)n3nc(-c4ccc(Br)o4)nc3c2)C1` (stereo not drawn) [Example 394, 1-[5-Amino-2-(5-bromo-furan-2-yl)-[1,2,4]triazolo[1,5-a]pyridine-7-carbonyl]-piperidine-3-carboxylic acid amide], for which, in assay [1], the “selectivity (A1/A2a)” value worked out at 37.9 and the Ki was 11 nM. For the same compound, affinity in assay [2] was put at a Ki of 417 nM.
On the same counts, the results for `COCCN(C)C(=O)c1cc(N)n2nc(-c3ccc(Br)o3)nc2c1` [Example 395, 5-Amino-2-(5-bromo-furan-2-yl)-[1,2,4]triazolo[1,5-a]pyridine-7-carboxylic acid (2-methoxy-ethyl)-methyl-amide] are 44, 6.7 nM and 295 nM.
The matching figures for `CCN(CCOC)C(=O)c1cc(N)n2nc(-c3ccc(Br)o3)nc2c1` [Example 396, 5-Amino-2-(5-bromo-furan-2-yl)-[1,2,4]triazolo[1,5-a]pyridine-7-carboxylic acid ethyl-(2-methoxy-ethyl)-amide]: 48.7, 3.5 nM and 170 nM.
Regarding `COCCN(C)C(=O)c1cc(N)n2nc(-c3nccs3)nc2c1` [Example 397, 5-Amino-2-thiazol-2-yl-[1,2,4]triazolo[1,5-a]pyridine-7-carboxylic acid (2-methoxy-ethyl)-methyl-amide], in assay [1], the “selectivity (A1/A2a)” value turned out to be 18.4 and the Ki was 298 nM. Besides, the Ki in assay [2] came to 5490 nM.
The matching figures for `COC[C@@H]1CCCN1C(=O)c1cc(N)n2nc(-c3nccs3)nc2c1` [Example 400, (5-Amino-2-thiazol-2-yl-[1,2,4]triazolo[1,5-a]pyridin-7-yl)-(S-2-methoxymethyl-pyrrolidin-1-yl)-methanone]: 53.3, 83.7 nM and 4460 nM.
The matching figures for `COC[C@H]1CCCN1C(=O)c1cc(N)n2nc(-c3nccs3)nc2c1` [Example 401, (5-Amino-2-thiazol-2-yl-[1,2,4]triazolo[1,5-a]pyridin-7-yl)-(R-2-methoxymethyl-pyrrolidin-1-yl)-methanone]: 66.4, 51.9 nM and 3440 nM.
On the same counts, the results for `CCC1CCC(C)N(C(=O)c2cc(N)n3nc(-c4nccs4)nc3c2)C1` (stereo not drawn) [Example 404, (5-Amino-2-thiazol-2-yl-[1,2,4]triazolo[1,5-a]pyridin-7-yl)-(5-ethyl-2-methyl-piperidin-1-yl)-methanone] are 13.3, 94.3 nM and 1250 nM.
Take `CC(C)CN(CC(C)C)C(=O)c1cc(N)n2nc(-c3nccs3)nc2c1` [Example 405, 5-Amino-2-thiazol-2-yl-[1,2,4]triazolo[1,5-a]pyridine-7-carboxylic acid diisobutylamide]: in assay [1], the “selectivity (A1/A2a)” value was 23.2 and the Ki is 43.3 nM. In assay [2], this compound showed a Ki of 1000 nM.
With `CCN(C)C(=O)c1cc(N)n2nc(-c3ccccn3)nc2c1` [Example 406, 5-Amino-2-pyridin-2-yl-[1,2,4]triazolo[1,5-a]pyridine-7-carboxylic acid ethyl-methyl-amide], in assay [1], the “selectivity (A1/A2a)” value stood at 26.8. In addition, the Ki in assay [1] was 147 nM; in assay [2], 3930 nM.
On the same counts, the results for `C#CCN(C)C(=O)c1cc(N)n2nc(-c3ccccn3)nc2c1` [Example 407, 5-Amino-2-pyridin-2-yl-[1,2,4]triazolo[1,5-a]pyridine-7-carboxylic acid methyl-prop-2-ynyl-amide] are 26.5, 69.1 nM and 1830 nM.
The matching figures for `Nc1cc(C(=O)N2CC=CC2)cc2nc(-c3ccccn3)nn12` [Example 408, (5-Amino-2-pyridin-2-yl-[1,2,4]triazolo[1,5-a]pyridin-7-yl)-(2,5-dihydro-pyrrol-1-yl)-methanone]: 14.9, 91.8 nM and 1370 nM.
On the same counts, the results for `C=CCN(C)C(=O)c1cc(N)n2nc(-c3ccccn3)nc2c1` [Example 409, 5-Amino-2-pyridin-2-yl-[1,2,4]triazolo[1,5-a]pyridine-7-carboxylic acid allyl-methyl-amide] are 16.5, 99.8 nM and 1650 nM.
Regarding `CC(C)N(C)C(=O)c1cc(N)n2nc(-c3ccccn3)nc2c1` [Example 411, 5-Amino-2-pyridin-2-yl-[1,2,4]triazolo[1,5-a]pyridine-7-carboxylic acid isopropyl-methyl-amide], the “selectivity (A1/A2a)” value in assay [1] came to 22.6. For the same compound, the Ki was found to be 62.3 nM in assay [1] and 1410 nM in assay [2].
For the compound `CCCN(C)C(=O)c1cc(N)n2nc(-c3ccccn3)nc2c1` [Example 412, 5-Amino-2-pyridin-2-yl-[1,2,4]triazolo[1,5-a]pyridine-7-carboxylic acid methyl-propyl-amide], in assay [1], the “selectivity (A1/A2a)” value worked out at 25.4 and the Ki was 119 nM. Further, affinity in assay [2] was put at a Ki of 3020 nM.
With `CC1CCCN1C(=O)c1cc(N)n2nc(-c3ccccn3)nc2c1` (stereo not drawn) [Example 413, (5-Amino-2-pyridin-2-yl-[1,2,4]triazolo[1,5-a]pyridin-7-yl)-(2-methyl-pyrrolidin-1-yl)-methanone], the “selectivity (A1/A2a)” value in assay [1] was 37.8. Besides, the Ki in assay [1] stood at 37.8 nM; in assay [2], 1430 nM.
On the same counts, the results for `CCN(C(=O)c1cc(N)n2nc(-c3ccccn3)nc2c1)C(C)C` [Example 414, 5-Amino-2-pyridin-2-yl-[1,2,4]triazolo[1,5-a]pyridine-7-carboxylic acid ethyl-isopropyl-amide] are 15.8, 56 nM and 885 nM.
The matching figures for `CC1C=CC(C)N1C(=O)c1cc(N)n2nc(-c3ccccn3)nc2c1` (stereo not drawn) [Example 415, (5-Amino-2-pyridin-2-yl-[1,2,4]triazolo[1,5-a]pyridin-7-yl)-(2,5-dimethyl-2,5-dihydro-pyrrol-1-yl)-methanone]: 3.6, 75.4 nM and 274 nM.
The matching figures for `C=CCN(CC=C)C(=O)c1cc(N)n2nc(-c3ccccn3)nc2c1` [Example 416, 5-Amino-2-pyridin-2-yl-[1,2,4]triazolo[1,5-a]pyridine-7-carboxylic acid diallylamide]: 17.4, 48.1 nM and 835 nM.
On to `Nc1cc(C(=O)N2CCCCCC2)cc2nc(-c3ccccn3)nn12` [Example 417, (5-Amino-2-pyridin-2-yl-[1,2,4]triazolo[1,5-a]pyridin-7-yl)-azepan-1-yl-methanone], for which, in assay [1], the “selectivity (A1/A2a)” value was found to be 31.5. Moreover, the values for the Ki in assay [1] and in assay [2] were 16.9 nM and 532 nM, respectively.
Turning to `CC1CCCCN1C(=O)c1cc(N)n2nc(-c3ccccn3)nc2c1` (stereo not drawn) [Example 418, (5-amino-2-pyridin-2-yl-[1,2,4]triazolo[1,5-a]pyridin-7-yl)-(2-methyl-piperidin-1-yl)-methanone], in assay [1], the “selectivity (A1/A2a)” value amounted to 24.2 and the Ki worked out at 42.4 nM. The Ki in assay [2] stood at 1020 nM.

The record behind these values is patent US6506772B1, “Substituted [1,2,4]triazolo[1,5a]pyridine derivatives with activity as adenosine receptor ligands” (Hoffmann-La Roche Inc., priority 2000, dated 2003).
